Source: patent publication US20090149662A1, “PROCESSES FOR PREPARING ZAFIRLUKAST” (priority 2007, published 2009)

Experiment: Stability studies of amorphous zafirlukast under storage/stress conditions (XRD)
Type: physicochemical
Description: A sample of amorphous zafirlukast prepared using the above process was subjected to different conditions to determine the stability of the mixture under stress conditions.
The sample was packed in a clear polyethylene bag, tied with a tag, placed in a black polyethylene bag along with a silica pouch, which was filled with nitrogen, then sealed in a triple laminated bag, and finally sealed and stored in an HDPE drum.

Measured: Solid-form stability (XRD spectra) after storage

4-(5-cyclopentyloxy-carbonylamino-1-methyl-indol-3-ylmethyl)-3-methoxy-N-O-tolylsulfonylbenzamide [Amorphous form]
No change in XRD spectra: Long-term storage for 3 months, packed in polyethylene bags with silica pouch under nitrogen, triple laminated bag, HDPE drum | Storage at 25 + 5 C. and 60 + 5% RH, same packing | Storage at 40 + 5 C. and 70 + 5% RH, same packing
